The values that follow come from patent publication US6806275B2, “Arylpiperidine derivatives and use thereof” (Nihon Nohyaku Co., Ltd., priority 1998, dated 2004).

Data set [1] deals with T1, human D4.2 receptor (Homo sapiens, UniProt P21917, DEL265-296).
T1 construct: expressed in transfected cells; host or cells: CHO cells (membrane preparation)
T1 sequence (P21917 with tags, fused parts or gaps DEL265-296): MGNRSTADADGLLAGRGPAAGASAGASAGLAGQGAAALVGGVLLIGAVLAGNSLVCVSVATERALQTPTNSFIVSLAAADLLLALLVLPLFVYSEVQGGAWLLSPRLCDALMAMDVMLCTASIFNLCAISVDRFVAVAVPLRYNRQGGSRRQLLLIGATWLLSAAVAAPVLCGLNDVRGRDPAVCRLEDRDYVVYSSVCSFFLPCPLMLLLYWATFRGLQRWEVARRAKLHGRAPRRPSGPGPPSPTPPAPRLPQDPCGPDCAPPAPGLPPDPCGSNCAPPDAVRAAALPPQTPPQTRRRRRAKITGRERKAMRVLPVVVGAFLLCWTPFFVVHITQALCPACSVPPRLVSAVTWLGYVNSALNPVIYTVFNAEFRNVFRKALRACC
Briefly: Dopamine D4 receptor binding assay ([3H]spiperone). The settings on record: CHO cell membrane expressing human D4.2 receptor; [3H]spiperone 0.5 nM; 27° C., 2 hours. The procedure: 1. Dopamine D4 Receptor Binding Assay
Chinese hamster ovarium (CHO) cell membrane wherein human D4.2 receptor was expressed was used as a receptor preparation.
[^3H] spiperone was used as a [^3H]-labeled ligand.
Human D4.2 receptor binding assay: The (CHO) cell membrane wherein human D4.2 receptor was expressed, [^3H] spiperone (0.5 nM) and each test drug were incubated at 27° C. for 2 hours in 50 mM Tris-hydrochloric acid buffer (pH 7.4) containing 5 mM EDTA, 1.5 mM calcium chloride, 5 mM potassium chloride and 120 mM sodium chloride.
(§1) After completion of the reaction, the reaction mixture was filtered by suction through a glass filter (GF/B), and radioactivity in the filter paper was measured with a liquid scintillation spectrometer.
Binding under the reaction of [^3H] spiperone carried out in the presence of 10 μM haloperidol was defined as nonspecific binding of [^3H] spiperone, and the difference between the total binding and the nonspecific binding was defined as specific binding.

The target in data set [2] is T2, Dopamine D2 receptor (rat striatum membrane) (Rattus norvegicus, UniProt P61169).
T2 construct: Rat striatum was homogenized in 50 mM Tris-hydrochloric acid buffer (pH 7.4); from tissue; host or cells: rat striatum
T2 sequence (P61169 whole entry): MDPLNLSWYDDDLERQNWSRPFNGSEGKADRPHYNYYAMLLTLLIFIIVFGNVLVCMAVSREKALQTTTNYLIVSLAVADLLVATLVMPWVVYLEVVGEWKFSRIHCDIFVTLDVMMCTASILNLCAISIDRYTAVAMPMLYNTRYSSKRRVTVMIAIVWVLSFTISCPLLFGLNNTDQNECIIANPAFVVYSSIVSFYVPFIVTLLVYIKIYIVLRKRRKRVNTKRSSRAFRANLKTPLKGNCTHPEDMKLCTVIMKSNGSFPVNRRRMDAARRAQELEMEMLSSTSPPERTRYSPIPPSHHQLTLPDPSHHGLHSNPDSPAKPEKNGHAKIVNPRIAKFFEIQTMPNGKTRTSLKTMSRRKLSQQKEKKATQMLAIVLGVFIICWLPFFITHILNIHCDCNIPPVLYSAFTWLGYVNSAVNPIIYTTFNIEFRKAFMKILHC
Nature of the data set: Dopamine D2 receptor binding assay ([3H]raclopride). Conditions: [3H]raclopride 1 nM, 25° C., 1 hour. Here is the method:
2. Dopamine D2 Receptor Binding Assay
Rat striatum membrane was used as a receptor preparation.
[^3H] raclopride was used as a [^3H]-labeled ligand.
Preparation of the receptor preparation: Rat striatum was homogenized in 50 mM Tris-hydrochloric acid buffer (pH 7.4), and the homogenate was centrifuged at 48,000×g and the pellet was washed once with Tris-hydrochloric acid buffer. The washed pellet was suspended in 50 mM Tris-hydrochloric acid buffer (pH 7.4) containing 120 mM sodium chloride, 5 mM potassium chloride, 2 mM calcium chloride and 1 mM magnesium chloride, to obtain a membrane preparation.
Dopamine D2 receptor binding assay: The membrane preparation (0.5 mg protein/ml), [^3H] raclopride (1 nM) and each test drug were incubated at 25° C. for 1 hour.
as §1
Binding under the reaction of [^3H] raclopride carried out in the presence of 10 μM haloperidol was defined as nonspecific binding of [^3H] lacropirido, and the difference between the total binding and the nonspecific binding was defined as specific binding.

One may read the melting point as the temperature, or range, at which the solid turns liquid. For the molecule `Fc1ccc(-c2ncncc2CCN2CCC(c3csc4cc(F)ccc34)CC2)cc1` [Example 11, 6-(4-fluorophenyl)-5-[2-[4-(6-fluorobenzo[b]thiophen-3-yl)piperidin-1-yl]ethyl]pyrimidine], the melting point was in the range of 123 to 124 °C.
Molecule `CSc1nc(-c2ccc(F)cc2)c(CCN2CCC(n3nnc4cc(F)ccc43)CC2)[nH]1` [C-03, 2-methylthio-4-(4-fluorophenyl)-5-[2-[4-(5-fluoro-1H-benzotriazol-1-yl)piperidin-1-yl]ethyl]imidazole] had a melting point of 223 to 224 °C.
Broadly, the IC50 is the concentration that inhibits the measured activity by half. Lower therefore signals higher potency. The molecule `Nc1nc(-c2ccc(F)cc2)c(CCN2CCC(n3cnc4cc(F)ccc43)CC2)s1` [B-25] displayed a melting point of 282 to 284 °C. In data set [1], this molecule yielded an IC50 of 32 nM. This molecule showed an IC50 in data set [2] of over 1000 nM.
On the same counts, the results for `Cc1nc(-c2ccc(F)cc2)c(CCN2CCC(n3nnc4cc(F)ccc43)CC2)s1` [B-29] are 145 to 146 °C, 2.4 nM and 206 nM.
Turning to `Fc1ccc(-c2[nH]ncc2CCN2CCC(c3csc4cc(F)ccc34)CC2)cc1` [Example 10, 5-(4-fluorophenyl)-4-[2-[4-(6-fluorobenzo[b]thiophen-3-yl)piperidin-1-yl]ethyl]pyrazole], the melting point was 162 to 163 °C.
Regarding `Nc1nc(-c2ccc(F)cc2)c(CCN2CCC(c3coc4cc(F)ccc34)CC2)s1` [B-01, 2-amino-4-(4-fluorophenyl)-5-[2-[4-(6-fluorobenzofuran-3-yl)piperidin-1-yl]ethyl]thiazole], the values for the IC50 in data set [1] and in data set [2] were 3.1 nM and 67.3 nM, respectively.
The matching figures for `Nc1nc(-c2ccc(F)cc2)c(CCN2CCC(n3nnc4cc(F)ccc43)CC2)s1` [B-26, 2-amino-4-(4-fluorophenyl)-5-[2-[4-(5-fluoro-1H-benzotriazol-1-yl)piperidin-1-yl]ethyl]thiazole]: 5.5 nM and 298 nM.
The molecule `Cc1nc(-c2ccc(F)cc2)c(CCN2CCC(c3c[nH]c4ccccc34)CC2)s1` [B-11] displayed a melting point of 165 to 167 °C. This molecule also displayed an IC50 in data set [1] of 0.4 nM. In data set [2], the IC50 was determined as 26.6 nM.
For `Oc1nc(-c2ccc(F)cc2)c(CCN2CCC(c3coc4cc(F)ccc34)CC2)s1` [B-06, 2-hydroxy-4-(4-fluorophenyl)-5-[2-[4-(6-fluorobenzofuran-3-yl)piperidin-1-yl]ethyl]thiazole], the melting point is 186 to 188 °C.
The molecule `Nc1nc(-c2ccc(F)cc2)c(CCN2CCC(c3c[nH]c4ccccc34)CC2)s1` [B-09] displayed a melting point of 203 to 203.5 °C. This molecule registered an IC50 in data set [1] of 2 nM. This molecule came in with an IC50 in data set [2] of 81.1 nM.
